Test: Fortification of water: iron content on storage, ICP-AES (Example 7)
Format: physicochemical
Procedure: Processed water enriched with 20-30 ppm of sodium and potassium (600 mL) was iron fortified by the addition of different iron ingredients as reported in Table 10. The amounts were chosen to provide approximately 2.1 mg of iron per litre of water. The water was stored in an oven at 40° C. for 18 weeks. The iron content was measured for each sample through ICP-AES.

Which “Iron content, Week 1” value (processed water fortified at approx. 2.1 mg iron per litre, stored at 40° C., ICP-AES, week 1) does the source give for Ferrous sulfate here?
Its value is 0 (Precipitate).

And the “Iron content, Week 18” value (processed water fortified at approx. 2.1 mg iron per litre, stored at 40° C., ICP-AES, week 18)?
Its value is 0 (Precipitate).

What about the “Behaviour in fortified water (precipitation / remaining in solution)” value (processed water stored at 40° C., up to 18 weeks) of the same substance?
The value was “precipitates almost instantaneously”.

— patent US10617140B2, “Iron-fortified food composition” (NESTEC S.A., priority 2015, dated 2020)
